In ChEMBL document CHEMBL4130388, “Recent advances of pyrazole-containing derivatives as anti-tubercular agents” (Eur J Med Chem, 2017):
Converted amounts (≈) assume the structure as drawn.

Assays:
Assay type in all cases: functional
[1] = system: Mycobacterium tuberculosis; assay: Antitubercular activity against Mycobacterium tuberculosis spec.192
[2] = system: Mycobacterium tuberculosis; assay: Antitubercular activity against Mycobacterium tuberculosis H37Rv
[3] = system: Mycobacterium tuberculosis; assay: Antitubercular activity against Mycobacterium tuberculosis spec.210

COc1cccc(-n2cc(Cn3ncc4c3CCN(C(=O)Nc3ccccc3)C4)nn2)c1
MIC [1]: 24.7 to 200 µM (≈ 10.6 to 85.9 µg/mL) | MIC [2]: 24.7 to 200 µM | MIC [3]: 24.7 to 200 µM (≈ 10.6 to 85.9 µg/mL)

O=C(Nc1ccccc1)N1CCc2c(cnn2Cc2cn(-c3ccc(F)c(F)c3)nn2)C1
MIC [1]: 24.7 to 200 µM (≈ 10.8 to 87.1 µg/mL) | MIC [2]: 24.7 to 200 µM | MIC [3]: 24.7 to 200 µM (≈ 10.8 to 87.1 µg/mL)

Cc1ccc(-n2cc(Cn3ncc4c3CCN(C(=O)Nc3ccccc3)C4)nn2)cc1C
MIC [1]: 24.7 to 200 µM (≈ 10.6 to 85.5 µg/mL) | MIC [2]: 24.7 to 200 µM | MIC [3]: 24.7 to 200 µM (≈ 10.6 to 85.5 µg/mL)

O=C(Nc1ccccc1)N1CCc2c(cnn2Cc2cn(-c3ccc(Cl)c(Cl)c3)nn2)C1
MIC [1]: 24.7 to 200 µM (≈ 11.6 to 93.7 µg/mL) | MIC [2]: 24.7 to 200 µM | MIC [3]: 24.7 to 200 µM (≈ 11.6 to 93.7 µg/mL)

CCOC(=O)C1=C(C)NC(C)=C(C(=O)OCC)C1c1cn(-c2ccccc2)nc1-c1ccc(Br)cc1
MIC [2]: 0.02 µg/mL

O=C(Nc1ccccc1)N1CCc2c(cnn2Cc2cn(-c3ccccc3Cl)nn2)C1
MIC [1]: 24.7 to 200 µM (≈ 10.7 to 86.8 µg/mL) | MIC [2]: 24.7 to 200 µM | MIC [3]: 24.7 to 200 µM (≈ 10.7 to 86.8 µg/mL)

O=C(Nc1ccccc1)N1CCc2c(cnn2Cc2cn(-c3ccc(Br)c(OC(F)(F)F)c3)nn2)C1
MIC [1]: 24.7 to 200 µM (≈ 13.9 to 112 µg/mL) | MIC [2]: 24.7 to 200 µM | MIC [3]: 24.7 to 200 µM (≈ 13.9 to 112 µg/mL)

O=C(Nc1ccccc1)N1CCc2c(cnn2Cc2cn(-c3ccccc3I)nn2)C1
MIC [1]: 24.7 to 200 µM (≈ 13 to 105 µg/mL) | MIC [2]: 24.7 to 200 µM | MIC [3]: 24.7 to 200 µM (≈ 13 to 105 µg/mL)

Cc1ccc(-n2cc(Cn3ncc4c3CCN(C(=O)Nc3ccccc3)C4)nn2)cc1
MIC [1]: 24.7 to 200 µM (≈ 10.2 to 82.7 µg/mL) | MIC [2]: 24.7 to 200 µM | MIC [3]: 24.7 to 200 µM (≈ 10.2 to 82.7 µg/mL)

O=C(Nc1ccccc1)N1CCc2c(cnn2Cc2cn(-c3ccc(I)cc3)nn2)C1
MIC [1]: 24.7 to 200 µM (≈ 13 to 105 µg/mL) | MIC [2]: 24.7 to 200 µM | MIC [3]: 24.7 to 200 µM (≈ 13 to 105 µg/mL)

O=C(Nc1ccccc1)N1CCc2c(cnn2Cc2cn(-c3ccccc3F)nn2)C1
MIC [1]: 24.7 to 200 µM (≈ 10.3 to 83.5 µg/mL) | MIC [2]: 24.7 to 200 µM | MIC [3]: 24.7 to 200 µM (≈ 10.3 to 83.5 µg/mL)

O=C(Nc1ccccc1)N1CCc2c(cnn2Cc2cn(-c3ccc(Cl)cc3Cl)nn2)C1
MIC [1]: 24.7 to 200 µM (≈ 11.6 to 93.7 µg/mL) | MIC [2]: 24.7 to 200 µM | MIC [3]: 24.7 to 200 µM (≈ 11.6 to 93.7 µg/mL)

O=C(Nc1ccccc1)N1CCc2c(cnn2Cc2cn(-c3ccc(F)cc3)nn2)C1
MIC [1]: 24.7 to 200 µM (≈ 10.3 to 83.5 µg/mL) | MIC [2]: 24.7 to 200 µM | MIC [3]: 24.7 to 200 µM (≈ 10.3 to 83.5 µg/mL)

O=C(Nc1ccccc1)N1CCc2c(cnn2Cc2cn(-c3ccccc3Br)nn2)C1
MIC [1]: 24.7 to 200 µM (≈ 11.8 to 95.7 µg/mL) | MIC [2]: 24.7 to 200 µM | MIC [3]: 24.7 to 200 µM (≈ 11.8 to 95.7 µg/mL)

COC(=O)C1=C(C)NC(C)=C(C(=O)OC)C1c1cn(-c2ccccc2)nc1-c1ccc([N+](=O)[O-])cc1
MIC [2]: 0.02 µg/mL

O=C(Nc1ccccc1)N1CCc2c(cnn2Cc2cn(-c3ccc(F)c(Cl)c3)nn2)C1
MIC [1]: 24.7 to 200 µM (≈ 11.2 to 90.4 µg/mL) | MIC [2]: 24.7 to 200 µM | MIC [3]: 24.7 to 200 µM (≈ 11.2 to 90.4 µg/mL)

O=C(Nc1ccccc1)N1CCc2c(cnn2Cc2cn(-c3ccccc3)nn2)C1
MIC [1]: 24.7 to 200 µM (≈ 9.87 to 79.9 µg/mL) | MIC [2]: 24.7 to 200 µM | MIC [3]: 24.7 to 200 µM (≈ 9.87 to 79.9 µg/mL)

CCOC(=O)C1=C(C)NC(C)=C(C(=O)OCC)C1c1cn(-c2ccccc2)nc1-c1ccc(F)cc1
MIC [2]: 0.02 µg/mL

O=C(Nc1ccccc1)N1CCc2c(cnn2Cc2cn(-c3ccc(Br)cc3)nn2)C1
MIC [1]: 24.7 to 200 µM (≈ 11.8 to 95.7 µg/mL) | MIC [2]: 24.7 to 200 µM | MIC [3]: 24.7 to 200 µM (≈ 11.8 to 95.7 µg/mL)

CCc1ccc(-n2cc(Cn3ncc4c3CCN(C(=O)Nc3ccccc3)C4)nn2)cc1
MIC [1]: 24.7 to 200 µM (≈ 10.6 to 85.5 µg/mL) | MIC [2]: 24.7 to 200 µM | MIC [3]: 24.7 to 200 µM (≈ 10.6 to 85.5 µg/mL)

O=C(Nc1ccccc1)N1CCc2c(cnn2Cc2cn(-c3ccccc3[N+](=O)[O-])nn2)C1
MIC [1]: 24.7 to 200 µM (≈ 11 to 88.9 µg/mL) | MIC [2]: 24.7 to 200 µM | MIC [3]: 24.7 to 200 µM (≈ 11 to 88.9 µg/mL)

O=C(Nc1ccccc1)N1CCc2c(cnn2Cc2cn(-c3cccc(Cl)c3)nn2)C1
MIC [1]: 24.7 to 200 µM (≈ 10.7 to 86.8 µg/mL) | MIC [2]: 24.7 to 200 µM | MIC [3]: 24.7 to 200 µM (≈ 10.7 to 86.8 µg/mL)

COc1ccc(-n2cc(Cn3ncc4c3CCN(C(=O)Nc3ccccc3)C4)nn2)cc1OC
MIC [1]: 24.7 to 200 µM (≈ 11.4 to 91.9 µg/mL) | MIC [2]: 24.7 to 200 µM | MIC [3]: 24.7 to 200 µM (≈ 11.4 to 91.9 µg/mL)

O=C(Nc1ccccc1)N1CCc2c(cnn2Cc2cn(-c3ccc(Cl)cc3)nn2)C1
MIC [1]: 24.7 to 200 µM (≈ 10.7 to 86.8 µg/mL) | MIC [2]: 24.7 to 200 µM | MIC [3]: 24.7 to 200 µM (≈ 10.7 to 86.8 µg/mL)

O=C(Nc1ccccc1)N1CCc2c(cnn2Cc2cn(-c3ccc([N+](=O)[O-])cc3)nn2)C1
MIC [1]: 24.7 to 200 µM (≈ 11 to 88.9 µg/mL) | MIC [2]: 24.7 to 200 µM | MIC [3]: 24.7 to 200 µM (≈ 11 to 88.9 µg/mL)

O=C(Nc1ccccc1)N1CCc2c(cnn2Cc2cn(-c3ccc(OC(F)(F)F)cc3)nn2)C1
MIC [1]: 24.7 to 200 µM (≈ 12 to 96.7 µg/mL) | MIC [2]: 24.7 to 200 µM | MIC [3]: 24.7 to 200 µM (≈ 12 to 96.7 µg/mL)

O=C(Nc1ccccc1)N1CCc2c(cnn2Cc2cn(-c3cc(Cl)cc(Cl)c3)nn2)C1
MIC [1]: 24.7 to 200 µM (≈ 11.6 to 93.7 µg/mL) | MIC [2]: 24.7 to 200 µM | MIC [3]: 24.7 to 200 µM (≈ 11.6 to 93.7 µg/mL)
